# Columns and labels:
# Phytophthora infestans = format: in vivo, Phytophthora infestans on tomato plants; details: 250 ppm active compound, sprayed one day before infection, assessed after 6 days; untreated plants 80% infected
# Septoria tritici = test: Protective activity against Septoria leaf blotch of wheat caused by Septoria tritici; format: in vivo, Septoria tritici on wheat seedlings; details: 250 ppm active compound, sprayed six days after inoculation, assessed after 14 days; untreated plants 90% infected
# Method: The active compounds were prepared as a stock solution comprising 25 mg of active compound which was made up to 10 ml using a mixture of acetone and/or DMSO and the emulsifier Uniperol® EL (wetting agent having emulsifying and dispersing action based on ethoxylated alkylphenols) in a volume ratio of solvent/emulsifier of 99/1. The mixture was then made up to 100 ml with water. This stock solution was diluted with the solvent/emulsifier/water mixture described to the concentration of active compounds stated below. Alternatively, the active compounds were used as a commercial finished formulation and diluted with water to the stated active compound concentration.
# Leaves of potted wheat seedlings were inoculated with a spore suspension of the leaf blotch disease Septoria tritici. The test plants were then placed in a greenhouse at temperatures between 20 and 22° C. and a relative atmospheric humidity of close to 100% and then at temperatures between 16 and 18° C. and an atmospheric humidity of about 70% for 4 days. Six days after the inoculation, the plants were sprayed to runoff point with an aqueous active compound solution having the concentration stated below. After the spray coating had dried on, the plants were returned. After 14 days, the extent of the development of the disease was determined visually in % infection of the entire leaf area.
structure (smiles),measurement,setting,value
"Cc1nnc(Cl)c(-c2c(F)cc(OCCCN(C)C)cc2F)c1-c1ccc(Cl)cc1 [Compound I-1, (3-{-4-[3-chloro-5-(4-chlorophenyl)-6-methylpyridazin-4-yl]-3,5-difluorophenoxy}propyl)dimethylamine]","infection of treated tomato plants (late blight), determined visually",Phytophthora infestans,no infection
same,"infection of the entire leaf area of treated wheat plants, determined visually",Septoria tritici,10%
